US12382888B2, “Compositions and methods for modulating immunity in plants” (Boyce Thompson Institute for Plant Research, Inc., priority 2013, dated 2025)
“Also recorded” adds a separate entry of the source.

What was measured:
[1] = test system: EBF1, ERS1, ERS2, ERF1, ACO1, SAUR34, DRM2, AUX1, IAA6 and ARF19; assay: Ethylene- and auxin-responsive gene markers in Arabidopsis leaves after root pretreatment (qRT-PCR); type: in vivo, Arabidopsis thaliana; conditions: root treatment 1 μM, 24 hpt
[2] = test system: Pseudomonas syringae pv. tomato DC3000 (Pst); assay: Resistance of Arabidopsis to Pseudomonas syringae pv. tomato DC3000 (bacterial growth); type: in vivo; conditions: for protection against Pst DC3000: compared with 1 μM
[3] = test system: FRK1, PHI1, PR-4, AOS, GSTF6, LOX2; assay: Defense gene markers in Arabidopsis leaves after root pretreatment (qRT-PCR); type: in vivo, Arabidopsis thaliana; conditions: root treatment 1 μM
MPK3 and MPK6 = assay: MAPK activation phosphorylation in Arabidopsis leaves (immunoblot); type: in vivo, Arabidopsis thaliana; conditions: leaf infiltration 1 μM; 10 minutes
PR-1 [4] = assay: PR-1 protein/transcript induction in tobacco leaves (immunoblot, RT-PCR)
Description: Four-weeks old tobacco plants were syringe-infiltrated with buffer, SA, or a mixture of SA (50 μM or 500 μM) and decreasing concentration of ascr #18 (10, 0.3, and 0.01 μM). PR-1 was assayed 48 hours after treatment by immunoblot using anti-PR-1 antibody.
PR-1 expression was analyzed 48 hp SA treatment.
To determine whether ascr #18 affects levels of the prototypic SA-responsive PR-1 gene/protein, tobacco plants were treated with varying concentrations of ascr #18 in the presence or absence of SA (FIG. 2).

Aspergillus fumigatus = assay: Disk-diffusion assay, Aspergillus fumigatus; conditions: up to 10 mM
PR-1, FRK1, PHI1, WRKY53 = assay: Defense gene expression in Arabidopsis roots (qRT-PCR)
Description: FIG. 18C: Eight days old Arabidopsis seedlings were treated by root bathing using the indicated concentrations of ascr #18. Root samples were collected 6 hours after treatment for RNA extraction. Transcript levels of PHI1, FRK1 and WRKY53 were determined by qRT-PCR and normalized to endogenous UFP (AT4G01000) . *P≤0.05; **P≤0.005; ***P≤0.0005, two-tailed 1-test.
Roots of Arabidopsis seedlings were treated with water (CK) or with various ascr #18 concentrations for 48 hours. Roots were then collected and used to extract RNA for qRT-PCR analysis.
For the RNA analyses in roots, Arabidopsis roots were collected from 20-30 seedlings from each treatment and mRNA was isolated using the Dynabeads mRNA DIRECT Kit (Life Technologies). DNA contamination was removed by treatment with DNase I (Life Technologies). First-strand cDNA was synthesized from 50 ng of mRNA using ProtoScript II Reverse Transcriptase (NEB). […] All assays consisted of three technical replicates for each RNA sample. Data was analyzed using the iCycler iQ Real-Time PCR Detection System Software version 3.0a (Bio-Rad). The Arabidopsis UFP gene (AT4G01000) was used as an endogenous reference gene. PCR was started with an activation and DNA denaturation step (95° C. for 3 minutes), then followed by 40 cycles of 95° C. for 20 seconds and 60° C. for 40 seconds.

[5] = test system: GRAS4, GST, β-1,3-glucanase, AOS2; assay: Defense response genes in tomato leaves after root pretreatment (qRT-PCR); type: in vivo, tomato (Solanum lycopersicum); conditions: root treatment 10 nM
Botrytis cinerea = assay: Resistance of tomato to Botrytis cinerea B05.01 (detached leaflet assay); type: in vivo; conditions: tomato cv. M82; root immersion 0.01 μM 48 hours before
[6] = test system: Pseudomonas syringae pv. tabaci; assay: Resistance of tobacco to Pseudomonas syringae pv. tabaci (bacterial growth); conditions: for resistance to P. syringae pv tabaci: 2 dpi
Pst DC3000 = assay: Resistance of tomato to Pst DC3000 (bacterial growth); type: in vivo, Pseudomonas syringae pv. tomato
B. subtilis = assay: Disk-diffusion assay, B. subtilis; conditions: up to 10 mM
M. incognita = assay: Arabidopsis root knot nematode infection assay; type: in vivo, Meloidogyne incognita
E. coli = assay: Disk-diffusion assay, E. coli; conditions: up to 10 mM
PR-1 [7] = assay: PR-1 gene expression in barley leaves (qRT-PCR)
Description: Barley leaves were sprayed with the indicated concentrations of ascr #18 48 hours before inoculation with Blumeria graminis f. sp. hordei (Bgh). […] Leaves of barley plants were sprayed with water or ascr #18 (1 μM). Plants were inoculated with Bgh 48 hours post treatment. Leaves were collected at 16 hpi and used to extract RNA for qRT-PCR analysis. Data are average±SD (n=3, where n denotes the number of independent samples). (*P≤0.05; **P≤0.005; ***P≤0.0005, two-tailed t-test).
Leaves of barley plants were sprayed with various concentrations of ascr #18 or water (mock) for 48 hours. 48 hours post treatment plants were inoculated with Bgh. Leaves were collected at 16 hpi and used to extract RNA for qRT-PCR analysis.
For barley analyses, RNA extraction from infected barley leaves was performed with TRIzol (Invitrogen) following the manufacturer's instructions. Freshly extracted mRNA was used for cDNA synthesis using QuantiTect Reverse-Transcription kit (Qiagen). cDNA was stored at −20° C. For qRT-PCR, 50 ng of cDNA was used as template in the Applied Biosystems 7500 FAST real time PCR system. Amplifications were performed in 7.5 μL of SYBER green JumpStart Taq ReadyMix (Sigma-Aldrich) with 0.5 pmol oligonucleotides. […] Ubiquitin was used as an endogenous reference gene.

PDF1.2 = PDF1.2 expression in Arabidopsis leaves (semi-quantitative PCR / qRT-PCR)
PR-1 [8] = assay: PR-1 expression in Arabidopsis leaves (semi-quantitative PCR / qRT-PCR)
tomato suspension cells = type: cell-based
[9] = test system: Blumeria graminis f. sp. hordei (Bgh); assay: Resistance of barley to Blumeria graminis f. sp. hordei (pustule count); conditions: barley cv. Golden Promise; leaves sprayed 0.01 μM to 1 μM 48 hours before inoculation; 7 dpi
Description: Barley leaves were sprayed with the indicated concentrations of ascr #18 48 hours before inoculation with Blumeria graminis f. sp. hordei (Bgh). Photograph of barley leave segments infected with Bgh were taken at 7 days post inoculation (dpi). FIG. 15C: Provides the number of Bgh pustules counted at 7 dpi. […] Leaves of barley plants were sprayed with water or ascr #18 (1 μM). Plants were inoculated with Bgh 48 hours post treatment. […] Data are average±SD (n=3, where n denotes the number of independent samples). (*P≤0.05; **P≤0.005; ***P≤0.0005, two-tailed t-test).
For barley cv. Golden Promise, 7-days old seedlings were pretreated by spraying with different concentrations of ascr #18. Inoculation with Bgh was done 48 hours post treatment using a detached leaflet assay. Briefly 10 leaves from 5 different plants per treatment were cut and transferred to Petri dishes containing 1% water agar. Leaves were then inoculated with Bgh. Water was used as mock control. Pustules were counted 7 dpi.

Heterodera schachtii = assay: Arabidopsis cyst nematode infection assay; type: in vivo
[10] = root treatment of seedlings, various concentrations, 48 hours
[11] = root pretreatment 10 nM, 48 hours
[12] = leaf infiltration 0.01 μM or 0.3 μM, 24 hpt, qRT-PCR
[13] = leaf pretreatment by syringe infiltration, 0.01, 0.3, and 10 μM

`CC1O[C@@H](O[C@@H](C)CCCCCCCCC(=O)O)C(O)C[C@H]1O` (stereo in doubt) [ascr #18, (10R)-(3′R,5′R-dihydroxy-6′S-methyl-(2H)-tetrahydropyran-2-yloxy)-undecanoic Acid] was tested, and the “auxin or ET-regulated defense signaling” value ([1]; 10 genes) was “does not strongly affect auxin or ET-regulated defense signaling”, the SAUR34 expression ([1]; only one of 10 tested genes) was “enhanced” and the “resistance to Pst, co-treatment” value ([2]; ascr #18 0.3 μM with SA 50 μM, leaf infiltration) was “further enhanced resistance; also recorded: strongly enhanced resistance”. For the same compound, the “concentration for best/maximal protection against leaf infection (Pst; bacterial and viral pathogens)” value ([2]; in vivo) was 1 µM, the “resistance to virulent Pst DC3000 (bacterial growth)” value ([2]; leaf syringe infiltration 0.3 μM 24 hours prior to inoculation, 3 dpi) was “enhanced resistance; also recorded: low level of protection” and the “resistance to P. syringae pv tomato” value ([2]; root immersion 0.3 μM, 1 μM, or 5 μM 24 hours prior to inoculation) was “enhanced resistance”. The “protection against Pst DC3000” value ([2]; root immersion 0.3 μM) was “less effective”, the “protection against Pst DC3000 (bacterial growth)” value ([2]; root immersion 1 μM, 24 hours before inoculation, 3 dpi) was “strong protection; also recorded: reduced growth” and the “protection against Pst DC3000” value ([2]; root immersion 5 μM) was “less effective”. For the same compound, the “FRK1 expression in leaves” value ([3]; 6 hpt) was “induced”, the “AOS expression in leaves” value ([3]; 24 hpt) was “increased expression” and the “GSTF6 expression in leaves” value ([3]; 24 hpt) was “increased expression”. For the same compound, the “LOX2 expression in leaves” value ([3]; 24 hpt) was “increased expression”, the “PHI1 expression in leaves” value ([3]; 24 hpt) was “induced” and the “PR-4 expression in leaves” value ([3]; 24 hpt) was “increased expression”. The “phosphorylation of MPK3 and MPK6” value (MPK3 and MPK6) was “transient increase in the phosphorylation of both MAPKs; also recorded: Activation”, the “PR-1 accumulation in presence of SA” value (PR-1 [4]; ascr #18 0.01 or 0.3 μM with SA 500 μM or 50 μM, leaf infiltration, vs SA only) was “enhanced PR-1 accumulation” and the PR-1 protein accumulation (PR-1 [4]; tobacco leaves, ascr #18 alone 0.01, 0.3, or 10 μM, syringe infiltration, 48 hours) was “did not induce PR-1 protein accumulation”. The growth inhibition (Aspergillus fumigatus) was “no growth inhibition”, the “root expression of FRK1” value (PR-1, FRK1, PHI1, WRKY53; 10 or 50 nM, within 6 hours) was “induced” and the “root expression of PHI1” value (PR-1, FRK1, PHI1, WRKY53; 10 or 50 nM, within 6 hours) was “induced”. The “root expression of WRKY53” value (PR-1, FRK1, PHI1, WRKY53; 10 or 50 nM, within 6 hours) was “induced”, the “FRK1 expression in roots” value (PR-1, FRK1, PHI1, WRKY53; [10]) was “induces; also recorded: induction” and the “PR-1 expression in roots” value (PR-1, FRK1, PHI1, WRKY53; [10]) was “induces; also recorded: induction”. For the same compound, the “β-1,3-glucanase transcript level in leaves” value ([5]; 24 hpt) was “enhanced levels”, the “AOS2 transcript level in leaves” value ([5]; 48 hpt) was “significantly elevated” and the “GRAS4 transcript level in leaves” value ([5]; 48 hpt) was “significantly elevated”. The “GST transcript level in leaves” value ([5]; 48 hpt) was “significantly elevated”, the “β-1,3-glucanase transcript level in leaves” value ([5]; 48 hpt) was “significantly elevated” and the “resistance to B. cinerea (lesion size 3 dpi)” value (Botrytis cinerea) was “did not have a significant effect”. For the same compound, the “resistance to P. syringae pv tabaci, SA added” value ([6]; SA 50 μM infiltrated 24 hours after ascr #18 0.01 μM pretreatment) was “no further enhancement of resistance”, the “resistance to virulent P.t. (bacterial growth)” value ([6]; ascr #18 0.01 μM alone, leaves (infiltration) or roots (immersion) 24 hours before inoculation, 48 hpi) was “sufficient to enhance resistance; also recorded: enhanced resistance” and the “virulent P.t. growth, both compounds” value ([6]; ascr #18 and SA provided simultaneously, vs single treatment) was “no greater reduction”. The “resistance to P. syringae pv tabaci” value ([6]; leaf syringe infiltration 0.01 μM, inoculation 48 hours after) was “enhanced resistance”, the “resistance to P. syringae pv tabaci” value ([6]; root immersion, ascr #18 0.01 μM or 0.03 μM) was “enhances resistance” and the “resistance to P. syringae pv tabaci” value ([6]; spray 0.01 μM 48 hours before inoculation) was “enhances resistance”. The “resistance to P. syringae pv tabaci, combination” value ([6]; spray ascr #18 0.01 μM combined with SA 50 μM) was “did not further increase resistance”, the “growth of Pst DC3000 in tomato leaves” value (Pst DC3000; higher concentrations than 10 nM) was “less effective” and the “growth of Pst DC3000 in tomato leaves” value (Pst DC3000; tomato cv. M82, root treatment 10 nM 48 hours before, 4 dpi) was “significantly reduced the growth”. The growth inhibition (B. subtilis) was “no growth inhibition”, the “concentration providing best protection against root infection” value (M. incognita; Arabidopsis, root knot nematodes) was 10 nM and the “infection with root knot nematode M. incognita” value (M. incognita; [11]) was “significantly reduced infection”. The growth inhibition (E. coli) was “no growth inhibition”, the “PR-1 gene expression, with Bgh inoculation” value (PR-1 [7]; 1 μM ascr #18 plus inoculation with Bgh, 16 hpi) was “further enhanced; also recorded: even higher levels of PR-1 expression” and the PR-1 gene expression (PR-1 [7]; barley leaves sprayed, 1 μM, 48 hours) was “induces PR-1 gene expression; also recorded: induced PR-1 transcript accumulation; also recorded: induction of PR-1 gene”. The “PDF1.2 expression, systemic” value (PDF1.2; a subset of leaves treated) was “induced PDF1.2 expression in untreated, as well as treated, leaves”, the PDF1.2 expression (PDF1.2; ascr #18 (0.01 or 0.3 μM), test leaves or roots treated, 24 hours) was “induces expression of the prototypic JA-responsive PDF1.2 gene; also recorded: altered” and the PDF1.2 transcripts (PDF1.2; [12]) was “elevated; also recorded: Induction”. The “PDF1.2 expression in Arabidopsis” value (PDF1.2; [13]) was “+”, the PR-1 expression (PR-1 [8]; ascr #18 (0.01 or 0.3 μM) alone, test leaves or roots treated, 24 hours) was “induces PR-1 expression even in the absence of SA; also recorded: altered” and the “SA-mediated PR-1 expression” value (PR-1 [8]; ascr #18 co-applied with SA (50 μM) to leaves or applied through roots) was “suppresses SA-mediated PR-1 expression”. The PR-1 transcripts (PR-1 [8]; [12]) was “elevated; also recorded: Induction”, the “PR-1 expression in Arabidopsis” value (PR-1 [8]; [13]) was “+” and the “media alkalinization (pH of culture medium)” value (tomato suspension cells) was “induced media alkalinization in a dose-dependent manner”. The “resistance to Bgh (number of pustules)” value [9] was “enhances basal resistance; also recorded: increased resistance to Bgh; also recorded: enhanced resistance”, the “concentration providing best protection against root infection” value (Heterodera schachtii; Arabidopsis, cyst nematodes) was 10 nM and the “resistance to H. schachtii (females counted)” value (Heterodera schachtii; media containing 50 nM or 600 nM, 19 dpi) was “enhances resistance”. The “infection with cyst nematode H. schachtii” value (Heterodera schachtii; [11]) was “significantly reduced infection”.
